Measurements published in patent US20250222146A1, “Radiopharmaceuticals Targeting Somatostatin Receptor 2 and Uses Thereof” (RayzeBio, Inc., priority 2023, published 2025).
Numbered stars: 1 amine (or outer) side, 2 acyl side, 3 side chain; on linkers, the order of the positions; unused ones are H or OH. Square brackets hold non-standard residues; d marks the D form. Side chains are listed from the residue outwards. Peptide text beside a SMILES is read from it. * marks the point of attachment. ξ: configuration not given here. DOTA(Lu)NH(CH2)6NHCOCH2 = O=C(CN1CCN2CCN3CCN(CC1)CC(=O)[O][Lu]([O]C(=O)C2)[O]C(=O)C3)NCCCCCCNC(=O)C*; DOTA(Lu) = O=C1CN2CCN3CCN(CC(=O)*)CCN(CC2)CC(=O)[O][Lu]([O]1)[O]C(=O)C3; Ala(piperidin-4-yl) = O=C([C@H](CC1CCN([*:3])CC1)N[*:1])[*:2]; DOTA = O=C(O)CN1CCN(CC(=O)O)CCN(CC(=O)*)CCN(CC(=O)O)CC1; dTrp(βS-Me) = C[C@@H](c1c[nH]c2ccccc12)[C@@H](N)C(=O)O; N(6-aminohexyl)Gly = O=C(CN(CCCCCCN[*:3])[*:1])[*:2]; Ala(piperazin-1-yl) = N[C@@H](CN1CCNCC1)C(=O)O; X16 = NC1CCC(C[C@H](N[*:1])C(=O)[*:2])CC1; Lys(5ξ-OH) = NCC(O)CC[C@H](N)C(=O)O; Ethylenediamine = C(CN[*:2])N[*:1]; Hyp = O=C(O)[C@@H]1C[C@@H](O)CN1; NMehLys = CN[C@@H](CCCCCN)C(=O)O; Trx = NC[C@H]1CC[C@H](C(=O)O)CC1; dPhg = N[C@@H](C(=O)O)c1ccccc1; NMehCys = CN[C@@H](CCS)C(=O)O; NMeK = CN[C@@H](CCCCN)C(=O)O; CO = O=C([*:1])[*:2]; Inp = O=C(O)C1CCNCC1; Ava = NCCCCC(=O)O; Bn = c1ccc(C*)cc1; GABA = NCCCC(=O)O; βAla = NCCC(=O)O

target: SSTR2 (Homo sapiens, UniProt P30874); assay: SSTR binding affinity by radioligand binding competition assay ([125I]-Tyr11-Somatostatin, membrane extracts); settings: radioligand competition, [125I]-Tyr11-Somatostatin 0.1 nM, membrane extracts; Ki from IC50 by Cheng Prusoff; read-out: SSTR2 Ki
Sequence (P30874 whole entry): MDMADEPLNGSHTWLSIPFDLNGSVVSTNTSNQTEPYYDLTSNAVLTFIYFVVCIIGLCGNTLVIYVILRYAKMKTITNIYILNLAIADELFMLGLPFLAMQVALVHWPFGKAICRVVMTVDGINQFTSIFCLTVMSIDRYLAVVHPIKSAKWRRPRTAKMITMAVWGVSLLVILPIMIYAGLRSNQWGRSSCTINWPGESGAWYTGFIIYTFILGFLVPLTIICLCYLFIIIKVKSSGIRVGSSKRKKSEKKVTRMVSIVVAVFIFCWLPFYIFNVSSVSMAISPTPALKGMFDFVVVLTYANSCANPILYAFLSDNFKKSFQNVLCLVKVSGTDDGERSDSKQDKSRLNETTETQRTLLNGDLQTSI

Structure (SMILES)	Ki
C[C@@H]1NC(=O)[C@H](CC2CCNCC2)NC(=O)[C@@H]([C@@H](C)c2c[nH]c3ccccc23)NC(=O)[C@H](Cc2ccc(O)cc2)NC(=O)[C@H](CCCCNC(=O)CN2CCN3CCN4CCN(CC2)CC(=O)[O][Lu]([O]C(=O)C3)[O]C(=O)C4)N(C)C(=O)[C@H](Cc2ccccc2)NC1=O [RB-0006319] (cyclo(AF[NMeK](DOTA(Lu))Y[dTrp(βS-Me)][Ala(piperidin-4-yl)]))	< 1 nM
C[C@@H](O)[C@@H]1NC(=O)[C@H](CCC(O)CN)NC(=O)[C@H](Cc2c[nH]c3ccccc23)NC(=O)[C@H](Cc2ccc(O)cc2)NC(=O)[C@H](CCSCC(=O)NCCCCCCNC(=O)CN2CCN3CCN4CCN(CC2)CC(=O)[O][Lu]([O]C(=O)C3)[O]C(=O)C4)N(C)C(=O)[C@H](Cc2ccccc2)NC1=O (stereo partly drawn) [RB-0006385] (cyclo(F[NMehCys](DOTA(Lu)NH(CH2)6NHCOCH2)YW[Lys(5ξ-OH)]T))	< 1 nM
C[C@@H](O)[C@@H]1NC(=O)[C@H](CC2CCC(N)CC2)NC(=O)[C@@H]([C@@H](C)c2c[nH]c3ccccc23)NC(=O)[C@H](Cc2ccc(O)cc2)NC(=O)[C@H](CCCCNC(=O)CN2CCN3CCN4CCN(CC2)CC(=O)[O][Lu]([O]C(=O)C3)[O]C(=O)C4)N(C)C(=O)[C@H](Cc2ccccc2)NC1=O (stereo partly drawn) [RB-0006387] (cyclo(F[NMeK](DOTA(Lu))Y[dTrp(βS-Me)][X16]T))	< 1 nM
C[C@@H](O)[C@@H]1NC(=O)[C@H](CC2CCNCC2)NC(=O)[C@@H]([C@@H](C)c2c[nH]c3ccccc23)NC(=O)[C@H](Cc2ccc(O)cc2)NC(=O)CN(CCCCCCNC(=O)CN2CCN3CCN4CCN(CC2)CC(=O)[O][Lu]([O]C(=O)C3)[O]C(=O)C4)C(=O)[C@H](Cc2ccccc2)NC1=O [RB-0006389] (cyclo(F[N(6-aminohexyl)Gly](DOTA(Lu))Y[dTrp(βS-Me)][Ala(piperidin-4-yl)]T))	< 1 nM
C[C@@H](O)[C@@H]1NC(=O)[C@H](CC2CCNCC2)NC(=O)[C@@H]([C@@H](C)c2c[nH]c3ccccc23)NC(=O)[C@H](Cc2ccc(O)cc2)NC(=O)[C@@H]2C[C@@H](OC(=O)NCCNC(=O)CN3CCN4CCN5CCN(CC3)CC(=O)[O][Lu]([O]C(=O)C4)[O]C(=O)C5)CN2C(=O)[C@H](Cc2ccccc2)NC1=O [RB-0006395] (cyclo(F[Hyp]([CO-Ethylenediamine-DOTA(Lu)])Y[dTrp(βS-Me)][Ala(piperidin-4-yl)]T))	< 1 nM
C[C@@H](O)[C@@H]1NC(=O)[C@H](CC2CCNCC2)NC(=O)[C@@H]([C@@H](C)c2c[nH]c3ccccc23)NC(=O)[C@H](Cc2ccc(O)cc2)NC(=O)[C@H](CCCCNC(=O)CNC(=O)CN2CCN3CCN4CCN(CC2)CC(=O)[O][Lu]([O]C(=O)C3)[O]C(=O)C4)N(C)C(=O)[C@H](Cc2ccccc2)NC1=O [RB-0006397] (cyclo(F[NMeK]([Gly-DOTA(Lu)])Y[dTrp(βS-Me)][Ala(piperidin-4-yl)]T))	1 to 3.33 nM
C[C@@H](O)[C@@H]1NC(=O)[C@H](CC2CCNCC2)NC(=O)[C@@H]([C@@H](C)c2c[nH]c3ccccc23)NC(=O)[C@H](Cc2ccc(O)cc2)NC(=O)[C@H](CCCCNC(=O)CCNC(=O)CN2CCN3CCN4CCN(CC2)CC(=O)[O][Lu]([O]C(=O)C3)[O]C(=O)C4)N(C)C(=O)[C@H](Cc2ccccc2)NC1=O [RB-0006400] (cyclo(F[NMeK]([βAla-DOTA(Lu)])Y[dTrp(βS-Me)][Ala(piperidin-4-yl)]T))	1 to 3.33 nM
C[C@@H](O)[C@@H]1NC(=O)[C@H](CC2CCNCC2)NC(=O)[C@@H]([C@@H](C)c2c[nH]c3ccccc23)NC(=O)[C@H](Cc2ccc(O)cc2)NC(=O)[C@H](CCCCNC(=O)CCCNC(=O)CN2CCN3CCN4CCN(CC2)CC(=O)[O][Lu]([O]C(=O)C3)[O]C(=O)C4)N(C)C(=O)[C@H](Cc2ccccc2)NC1=O [RB-0006403] (cyclo(F[NMeK]([GABA-DOTA(Lu)])Y[dTrp(βS-Me)][Ala(piperidin-4-yl)]T))	1 to 3.33 nM
C[C@@H](O)[C@@H]1NC(=O)[C@H](CC2CCNCC2)NC(=O)[C@@H]([C@@H](C)c2c[nH]c3ccccc23)NC(=O)[C@H](Cc2ccc(O)cc2)NC(=O)[C@H](CCCCNC(=O)CCCCNC(=O)CN2CCN3CCN4CCN(CC2)CC(=O)[O][Lu]([O]C(=O)C3)[O]C(=O)C4)N(C)C(=O)[C@H](Cc2ccccc2)NC1=O [RB-0006406] (cyclo(F[NMeK]([Ava-DOTA(Lu)])Y[dTrp(βS-Me)][Ala(piperidin-4-yl)]T))	1 to 3.33 nM
C[C@@H](O)[C@@H]1NC(=O)[C@H](CN2CCNCC2)NC(=O)[C@@H]([C@@H](C)c2c[nH]c3ccccc23)NC(=O)[C@H](Cc2ccc(O)cc2)NC(=O)[C@H](CCCCNC(=O)CC[C@@H]2C(=O)[O][Ga]3[O]C(=O)CN4CCN(CCN2CC4)CC(=O)[O]3)N(C)C(=O)[C@H](Cc2ccccc2)NC1=O [RB-0006414]	1 to 3.33 nM
C[C@@H](O)[C@@H]1NC(=O)[C@H](CN2CCNCC2)NC(=O)[C@@H]([C@@H](C)c2c[nH]c3ccccc23)NC(=O)[C@H](Cc2ccc(O)cc2)NC(=O)[C@H](CCCCNC(=O)[C@H]2CC[C@H](CNC(=O)CN3CCN4CCN5CCN(CC3)CC(=O)[O][Lu]([O]C(=O)C4)[O]C(=O)C5)CC2)N(C)C(=O)[C@H](Cc2ccccc2)NC1=O [RB-0006420] (cyclo(F[NMeK]([Trx-DOTA(Lu)])Y[dTrp(βS-Me)][Ala(piperazin-1-yl)]T))	1 to 3.33 nM
C[C@@H](O)[C@@H]1NC(=O)[C@H](CC2CCNCC2)NC(=O)[C@@H]([C@@H](C)c2c[nH]c3ccccc23)NC(=O)[C@H](Cc2ccc(O)cc2)NC(=O)[C@H](CCCCCNC(=O)CN2CCN3CCN4CCN(CC2)CC(=O)[O][Lu]([O]C(=O)C3)[O]C(=O)C4)N(C)C(=O)[C@H](Cc2ccccc2)NC1=O [RB-0006449] (cyclo(F[NMehLys](DOTA(Lu))Y[dTrp(βS-Me)][Ala(piperidin-4-yl)]T))	< 1 nM
C[C@@H](O)[C@@H]1NC(=O)[C@H](CC2CCNCC2)NC(=O)[C@@H]([C@@H](C)c2c[nH]c3ccccc23)NC(=O)[C@H](Cc2ccc(O)cc2)NC(=O)[C@H](CCCCNC(=O)C2CCN(C(=O)CN3CCN4CCN5CCN(CC3)CC(=O)[O][Lu]([O]C(=O)C5)[O]C(=O)C4)CC2)N(C)C(=O)[C@H](Cc2ccccc2)NC1=O [RB-0006452] (cyclo(F[NMeK]([Inp-DOTA(Lu)])Y[dTrp(βS-Me)][Ala(piperidin-4-yl)]T))	1 to 3.33 nM

same assay, conditions: read-out: SSTR2 Ki; radioligand competition, [125I]-Tyr11-Somatostatin 0.1 nM, membrane extracts; Ki from IC50 by Cheng Prusoff

Structure (SMILES)	Ki
C[C@@H](c1c[nH]c2ccccc12)[C@H]1NC(=O)[C@@H](c2ccccc2)NC(=O)[C@@H]2C[C@@H](OC(=O)NCCNC(=O)CN3CCN(CC(=O)O)CCN(CC(=O)O)CCN(CC(=O)O)CC3)CN2C(=O)[C@H](Cc2ccccc2)NC(=O)[C@H](Cc2ccc(OCc3ccccc3)cc2)NC(=O)[C@H](CC2CCNCC2)NC1=O [RB-0006391] (cyclo(F[Hyp]([CO-Ethylenediamine-DOTA])[dPhg][dTrp(βS-Me)][Ala(piperidin-4-yl)]Y(Bn)))	33.3 to 100 nM
C[C@@H](c1c[nH]c2ccccc12)[C@H]1NC(=O)[C@H](Cc2ccc(O)cc2)NC(=O)[C@@H]2C[C@@H](OC(=O)NCCNC(=O)CN3CCN(CC(=O)O)CCN(CC(=O)O)CCN(CC(=O)O)CC3)CN2C(=O)[C@H](Cc2ccccc2)NC(=O)[C@H](Cc2ccc(OCc3ccccc3)cc2)NC(=O)[C@H](CC2CCNCC2)NC1=O [RB-0006393] (cyclo(F[Hyp]([CO-Ethylenediamine-DOTA])Y[dTrp(βS-Me)][Ala(piperidin-4-yl)]Y(Bn)))	< 1 nM
